In patent US9695192B2, “Fused heterocyclic compounds as ion channel modulators” (GILEAD SCIENCES, INC., priority 2011, dated 2017):
Read-outs that look alike come from different tables or passages of the source.

Assays:
[1] = target: wild-type human cardiac sodium channel, hNav1.5 (Homo sapiens, UniProt Q14524); experiment: Late INa screening assay (QPatch whole cell patch clamp, tefluthrin-enhanced late sodium current); assay type: cell-based; conditions: HEK293 hNav1.5, late INa activated with 10 μM Tefluthrin
Sequence of wild-type human cardiac sodium channel, hNav1.5 (Q14524 whole entry): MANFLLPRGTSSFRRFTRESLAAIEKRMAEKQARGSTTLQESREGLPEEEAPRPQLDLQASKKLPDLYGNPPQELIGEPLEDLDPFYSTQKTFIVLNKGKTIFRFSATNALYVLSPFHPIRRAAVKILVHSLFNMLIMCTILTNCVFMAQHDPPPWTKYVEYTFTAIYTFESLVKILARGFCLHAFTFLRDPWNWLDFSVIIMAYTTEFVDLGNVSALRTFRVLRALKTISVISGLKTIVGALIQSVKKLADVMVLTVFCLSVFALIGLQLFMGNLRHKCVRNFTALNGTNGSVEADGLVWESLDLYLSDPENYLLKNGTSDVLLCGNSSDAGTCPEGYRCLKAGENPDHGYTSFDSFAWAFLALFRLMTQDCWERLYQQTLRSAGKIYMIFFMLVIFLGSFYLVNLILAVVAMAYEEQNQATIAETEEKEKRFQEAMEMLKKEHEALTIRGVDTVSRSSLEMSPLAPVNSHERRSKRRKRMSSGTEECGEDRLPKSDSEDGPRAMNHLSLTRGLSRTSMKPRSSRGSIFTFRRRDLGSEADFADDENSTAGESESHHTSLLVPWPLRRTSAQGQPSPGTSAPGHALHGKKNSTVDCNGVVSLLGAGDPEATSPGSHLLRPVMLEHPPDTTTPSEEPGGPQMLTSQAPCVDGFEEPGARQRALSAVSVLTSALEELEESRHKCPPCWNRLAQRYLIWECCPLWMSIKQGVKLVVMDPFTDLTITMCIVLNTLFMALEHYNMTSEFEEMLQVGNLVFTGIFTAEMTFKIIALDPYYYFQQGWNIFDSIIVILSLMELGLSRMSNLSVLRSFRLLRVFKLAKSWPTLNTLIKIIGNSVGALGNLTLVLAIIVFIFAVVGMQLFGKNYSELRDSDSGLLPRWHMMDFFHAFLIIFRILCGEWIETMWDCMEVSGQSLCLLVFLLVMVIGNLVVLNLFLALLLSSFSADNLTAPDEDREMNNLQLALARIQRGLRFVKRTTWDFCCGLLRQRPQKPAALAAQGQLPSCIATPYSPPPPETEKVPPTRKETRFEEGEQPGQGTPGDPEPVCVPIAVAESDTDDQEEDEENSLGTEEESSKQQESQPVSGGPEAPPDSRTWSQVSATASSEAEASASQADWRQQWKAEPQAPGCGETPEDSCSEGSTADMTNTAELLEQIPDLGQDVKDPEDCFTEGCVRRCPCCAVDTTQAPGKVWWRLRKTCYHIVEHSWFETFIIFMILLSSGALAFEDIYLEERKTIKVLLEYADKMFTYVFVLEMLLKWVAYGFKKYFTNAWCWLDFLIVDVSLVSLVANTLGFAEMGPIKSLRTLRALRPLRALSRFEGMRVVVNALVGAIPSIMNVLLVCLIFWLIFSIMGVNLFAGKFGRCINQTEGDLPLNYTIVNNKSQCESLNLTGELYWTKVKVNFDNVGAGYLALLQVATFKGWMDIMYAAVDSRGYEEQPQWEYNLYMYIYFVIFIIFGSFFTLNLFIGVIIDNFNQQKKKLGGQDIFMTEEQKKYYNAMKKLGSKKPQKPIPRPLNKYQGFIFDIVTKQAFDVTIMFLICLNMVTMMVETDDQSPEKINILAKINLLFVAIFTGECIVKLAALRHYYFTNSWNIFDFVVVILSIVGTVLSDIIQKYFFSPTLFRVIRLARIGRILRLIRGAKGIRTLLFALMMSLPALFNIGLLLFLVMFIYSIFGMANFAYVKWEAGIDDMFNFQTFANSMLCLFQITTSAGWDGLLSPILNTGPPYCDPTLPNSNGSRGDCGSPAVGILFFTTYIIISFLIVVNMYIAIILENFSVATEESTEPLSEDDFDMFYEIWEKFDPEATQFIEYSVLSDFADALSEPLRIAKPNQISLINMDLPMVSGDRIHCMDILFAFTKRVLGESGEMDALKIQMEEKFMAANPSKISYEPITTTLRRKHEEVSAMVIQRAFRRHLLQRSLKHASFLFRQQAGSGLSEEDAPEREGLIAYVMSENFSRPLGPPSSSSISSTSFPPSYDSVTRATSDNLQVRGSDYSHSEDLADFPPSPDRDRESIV
Protocol: The late sodium current (Late INa) and peak sodium current (Peak INa) assays are performed on an automated electrophysiology platform, QPatch 16X (Sophion Bioscience, Copenhagen, Denmark), which uses the whole cell patch clamp technique to measure currents through the cell membrane of up to 16 cells at a time. The assay uses an HEK293 (human embryonic kidney) cell line heterologously expressing the wild-type human cardiac sodium channel, hNav1.5, purchased from Millipore (Billerica, Mass.). No beta subunits were coexpressed with the Na channel alpha subunit. Cells are maintained with standard tissue culture procedures and stable channel expression is maintained with 400 μg/mL Geneticin in the culture medium. Cells isolated for use on QPatch are incubated for 5 minutes in Detachin 1X (Genlantis, San Diego, USA) at 37° C. to ensure that 80-90% of the cells are single and not part of a cell cluster. Experiments are carried out at 23-25° C.
For both the Late INa and Peak INa assays, series resistance compensation is set to 100% and series resistance and whole-cell compensation are performed automatically. Currents are digitized at 25 kHz and low-pass filtered at 12 kHz and 10 kHz for the late and peak INa assays, respectively. Currents through open sodium channels are automatically recorded and stored in the Sophion Bioscience Oracle database (Sophion Bioscience, Copenhagen, Denmark). Analysis is performed using QPatch Assay and database software and data are compiled in Excel.
Compound stocks are routinely made by the Gilead Sample Bank in plastic vials to 10 mM in dimethyl sulfoxide (DMSO). In some cases, when compounds are not soluble in DMSO, they are made in 100% ethanol. Stocks are sonicated as necessary. The extracellular solution for screening Late INa is composed of: 140 mM NaCl, 4 mM KCl, 1.8 mM CaCl2, 0.75 mM MgCl2 and 5 mM HEPES with pH adjusted to 7.4 using NaOH. The intracellular solution used to perfuse the inside of the cells for both the Late INa and Peak INa assays contains: 120 mM CsF, 20 mM CsCl, 5 mM EGTA, 5 mM HEPES and pH adjusted to 7.4 with CsOH. Compounds are diluted in extracellular solution to 1 μM in glass vials and then transferred to glass well plates before robotic addition to the cells. A 0 mM Na extracellular solution (0 Na-ECF) is used at the end of each experiment for the Late INa and Peak INa assays to measure baseline current contains: 140 mM N-methyl-D-glucamine; 4 mM KCl; 1.8 mM CaCl2; 0.75 mM MgCl2; 5 mM HEPES and pH was adjusted to 7.4 with HCl.
For the hNav1.5 Late INa assay, sodium channels are activated every 10 seconds (0.1 Hz) by depolarizing the cell membrane to −20 mV for 250 milliseconds (ms) from a holding potential of −120 mV. In response to a −20 mV voltage step, typical hNav1.5 sodium currents activate rapidly to a peak negative current and then inactivate nearly completely within 3-4 ms.
Compounds were tested to determine their activity in blocking the late sodium current. Late INa was generated by adding 10 μM Tefluthrin (pyrethroid) to the extracellular solution while recording Na currents. To confirm the block of late INa observed using the automated screening method, a second late INa enhancer (ATX-II) and the manual patch clamp method were used. ATX-II and tefluthrin occupy distinct, non-overlapping binding sites and modify Na^+ channel function differently to increase late INa. Compounds tested have been found generally to inhibit the enhanced late INa caused by either late INa enhancer. For the purposes of the screening, late INa is defined as the mean current between 225 ms and 250 ms after stepping to −20 mV to activate Na channels. After establishing the whole cell recording configuration, late INa activator is added to each well 4 times over a 16-17 minute period so that the late component of the Na current reaches a stable value. Compounds were then added (typically at 1 μM), in the presence of the late INa activator, with 3 additions over the course of 7 or 8 minutes. […]

hNav1.5 Peak INa = hNav1.5 Peak INa (Homo sapiens, UniProt Q14524); experiment: Peak INa screening assay (tonic block and use-dependent block); assay type: cell-based
Sequence of hNav1.5 Peak INa (Q14524 whole entry): as above
Protocol: The assay uses an HEK293 (human embryonic kidney) cell line heterologously expressing the wild-type human cardiac sodium channel, hNav1.5, purchased from Millipore (Billerica, Mass.). No beta subunits were coexpressed with the Na channel alpha subunit. Cells are maintained with standard tissue culture procedures and stable channel expression is maintained with 400 μg/mL Geneticin in the culture medium. […] Experiments are carried out at 23-25° C. […] Currents through open sodium channels are automatically recorded and stored in the Sophion Bioscience Oracle database (Sophion Bioscience, Copenhagen, Denmark). Analysis is performed using QPatch Assay and database software and data are compiled in Excel. Compound stocks are routinely made by the Gilead Sample Bank in plastic vials to 10 mM in dimethyl sulfoxide (DMSO). […] Stocks are sonicated as necessary. […] Compounds are diluted in extracellular solution to 1 μM in glass vials and then transferred to glass well plates before robotic addition to the cells. […] Good separation between the concentrations of test compound to reduce late and peak INa is beneficial to enable separation of the desired effect to reduce late INa-induced electrical and mechanical dysfunction from the undesired effect to reduce peak INa, which can lead to slowing or block of conduction of electrical excitation in the heart. It is contemplated that the compounds of Formula I avoid significant block of peak INa. […] Analysis of peak INa generally requires correction for rundown before determining the % block of peak current by the tested compound. […] Use-dependent block refers to the accumulation of block with increased frequency of channel activation. […] It is therefore expected that reduction of peak INa by compounds of this disclosure will be greater at high heart rates, such as those during tachyarrhythmias, than at normal heart rates. […] The intracellular solution used for the Peak INa assay is the same as outlined for the Late INa assay (see above). […] After establishing the whole cell recording configuration, channels were stimulated to open with low frequency stimulation (0.1 Hz) for 7 minutes so that the recording can be monitored and the extent to which the recording has stabilized can be assessed. […] Both TB and UDB were analyzed by incorporating rundown correction for the peak INa and UDB as calculated by compensating for the small use-dependent effect of the stimulation protocol on peak INa in the absence of compound.

[2] = at 1 μM, 3 Hz stimulation, holding potential −100 mV, read-out: Peak UDB (use-dependent block of peak INa) % Inhibition
[3] = read-out: Peak TB (tonic block of peak INa) % Inhibition

SMILES	inhibition at 1 µM [1] [%]	inhibition at 1 µM (hNav1.5 Peak INa; [2]) [%]	inhibition at 1 µM (hNav1.5 Peak INa; [3]) [%]
FC(F)(F)c1ccc(-c2ccc3c(c2)C(NCCOc2ccccn2)=NCCO3)cc1 [II-20, N-(2-(pyridin-2-yloxy)ethyl)-7-(4-(trifluoromethyl)phenyl)-2,3-dihydrobenzo[f][1,4]oxazepin-5-amine]	59	89	30
CC(C)(C)OC(=O)N1CCC(NC2=NCCOc3ccc(-c4ccc(C(F)(F)F)cc4)cc32)C1 (centres unmarked) [II-62, tert-butyl 3-(7-(4-(trifluoromethyl)phenyl)-2,3-dihydrobenzo[f][1,4]oxazepin-5-ylamino)pyrrolidine-1-carboxylate]	43	32	8
FC(F)(F)c1ccc(-c2ccc3c(c2)C(N2CCC(c4ccccn4)C2)=NCCO3)cc1 (centres unmarked) [II-60, 5-(3-(pyridin-2-yl)pyrrolidin-1-yl)-7-(4-(trifluoromethyl)phenyl)-2,3-dihydrobenzo[f][1,4]oxazepine]	42	25	10
FC(F)(F)c1ccc(-c2ccc3c(c2)C(NCCOc2ccccc2)=NCCO3)cc1 [II-22, N-(2-phenoxyethyl)-7-(4-(trifluoromethyl)phenyl)-2,3-dihydrobenzo[f][1,4]oxazepin-5-amine]	60	69	19
CN(C)[C@H]1CCN(C2=NCCOc3ccc(-c4ccc(C(F)(F)F)cc4)cc32)C1 [II-15, (S)—N,N-dimethyl-1-(7-(4-(trifluoromethyl)phenyl)-2,3-dihydrobenzo[f][1,4]oxazepin-5-yl)pyrrolidin-3-amine]	49	27	16
FC(F)(F)c1ccc(-c2ccc3c(c2)C(NCC2CC2)=NCCO3)cc1 [II-11, N-(cyclopropylmethyl)-7-(4-(trifluoromethyl)phenyl)-2,3-dihydrobenzo[f][1,4]oxazepin-5-amine]	41	31	11
CC(C)(C)OC(=O)N1CC[C@@H](NC2=NCCOc3ccc(-c4ccc(C(F)(F)F)cc4)cc32)C1 [II-63, (R)-tert-butyl 3-(7-(4-(trifluoromethyl)phenyl)-2,3-dihydrobenzo[f][1,4]oxazepin-5-ylamino)pyrrolidine-1-carboxylate]	51	31	12
CC(C)(C)OC(=O)N1CC[C@H](NC2=NCCOc3ccc(-c4ccc(C(F)(F)F)cc4)cc32)C1 [II-43, (S)-tert-butyl 3-(7-(4-(trifluoromethyl)phenyl)-2,3-dihydrobenzo[f][1,4]oxazepin-5-ylamino)pyrrolidine-1-carboxylate]	46	31	12
Cn1ccnc1CNC1=NCCOc2ccc(-c3ccc(C(F)(F)F)cc3)cc21 [II-17, N-((1-methyl-1H-imidazol-2-yl)methyl)-7-(4-(trifluoromethyl)phenyl)-2,3-dihydrobenzo[f][1,4]oxazepin-5-amine]	10	–	–
CCN(CC)[C@@H]1CCN(C2=NCCOc3ccc(-c4ccc(C(F)(F)F)cc4)cc32)C1 [II-49, (R)—N,N-diethyl-1-(7-(4-(trifluoromethyl)phenyl)-2,3-dihydrobenzo[f][1,4]oxazepin-5-yl)pyrrolidin-3-amine]	11	–	–
FC(F)(F)c1ccc(-c2ccc3c(c2)-c2ncc(-c4ncccn4)n2CCO3)cc1 [Compound I-7, 3-(pyrimidin-2-yl)-10-(4-(trifluoromethyl)phenyl)-5,6-dihydrobenzo[f]imidazo[1,2-d][1,4]oxazepine]	17	–	–
FC(F)(F)c1ccc(-c2ccc3c(c2)C(NCc2ncccn2)=NCCO3)cc1 [II-7, N-(pyrimidin-2-ylmethyl)-7-(4-(trifluoromethyl)phenyl)-2,3-dihydrobenzo[f][1,4]oxazepin-5-amine]	14	–	–
FC(F)(F)c1ccc(-c2ccc3c(c2)C(NC2CCNC2)=NCCO3)cc1 (centres unmarked) [II-59, N-(pyrrolidin-3-yl)-7-(4-(trifluoromethyl)phenyl)-2,3-dihydrobenzo[f][1,4]oxazepin-5-amine]	8	–	–
O=C(N[C@@H]1CCN(C2=NCCOc3ccc(-c4ccc(C(F)(F)F)cc4)cc32)C1)c1ncccn1 [II-46, (R)—N-(1-(7-(4-(trifluoromethyl)phenyl)-2,3-dihydrobenzo[f][1,4]oxazepin-5-yl)pyrrolidin-3-yl)pyrimidine-2-carboxamide]	4	–	–
FC(F)(F)c1ccc(-c2ccc3c(c2)C(N2CCN(C4CC4)CC2)=NCCO3)cc1 [II-31, 5-(4-cyclopropylpiperazin-1-yl)-7-(4-(trifluoromethyl)phenyl)-2,3-dihydrobenzo[f][1,4]oxazepine]	24	–	–
FC(F)(F)c1ccc(-c2ccc3c(c2)C(NCc2ccccn2)=NCCO3)cc1 [II-10, N-(pyridin-2-ylmethyl)-7-(4-(trifluoromethyl)phenyl)-2,3-dihydrobenzo[f][1,4]oxazepin-5-amine]	32	–	–
CN1CCN(C2=NCCOc3ccc(-c4ccc(C(F)(F)F)cc4)cc32)CC1 [II-52, 5-(4-methylpiperazin-1-yl)-7-(4-(trifluoromethyl)phenyl)-2,3-dihydrobenzo[f][1,4]oxazepine]	10	–	–
Cc1cnc2n1CCOc1ccc(-c3ccc(OC(F)(F)F)cc3)cc1-2 [Compound I-17, 3-methyl-10-(4-(trifluoromethoxy)phenyl)-5,6-dihydrobenzo[f]imidazo[1,2-d][1,4]oxazepine]	14	–	–
FC1(F)CCN(C2=NCCOc3ccc(-c4ccc(C(F)(F)F)cc4)cc32)C1 [II-6, 5-(3,3-difluoropyrrolidin-1-yl)-7-(4-(trifluoromethyl)phenyl)-2,3-dihydrobenzo[f][1,4]oxazepine]	7	–	–
